Assay results taken from patent US7851220B2, “Diacylhydrazine ligands for modulating the expression of exogenous genes in mammalian systems via an ecdysone receptor complex” (priority 2003, dated 2010).

Biological target: T1, GAL4 DBD (1-147)-CfEcR(DEF)/VP16AD-βRXREF-LmUSPEF (Choristoneura fumiferana, UniProt O77240)
T1 construct: The wild-type D, E, and F domains from spruce budworm Choristoneura fumiferana EcR (“CfEcR-DEF”)
Experiment: 27-63 Assay (luciferase reporter gene assay in stably transfected CHO cell clone)
Type: cell-based
Details: for relative Max F1 27-63 Assay: maximum fold induction at any concentration relative to maximum fold induction of GS-E ligand
Procedure: Stably transfected cells were selected by Zeocin resistance. Individually isolated CHO cell clones were transiently transfected with a GAL4 RE-luciferase reporter (pFR Luc). 27-63 clone was selected using Hygromycin.
Cells were trypsinized and diluted to a concentration of 2.5×10^4 cells mL. 100 μL of cell suspension was placed in each well of a 96 well plate and incubated at 37° C. under 5% CO2 for 24 h. Ligand stock solutions were prepared in DMSO and diluted 300 fold for all treatments.
Luciferase reporter gene expression was measured 48 h after cell treatment using Bright-Glo™ Luciferase Assay System from Promega (E2650). Luminescence was detected at room temperature using a Dynex MLX microtiter plate luminometer. EC50s were calculated from dose response data using a three-parameter logistic model.
Each assay was conducted in two separate wells, and the two values were averaged.

[1] = CHO 27-63 clone, luciferase, 48 h

Row | SMILES | EC50 | relative Max F1 27-63 Assay [1] | Avg F1 27-63 Assay (at 33 μM, CHO 27-63 clone, luciferase, 48 h)
1 | C=CCC(C)(C)C(CCCC)N(NC(=O)c1cccc(OC)c1C)C(=O)c1cc(C)cc(C)c1 (stereo not shown) [RG-115878, 3,5-dimethyl-benzoic acid N-(1-butyl-2,2-dimethyl-pent-4-enyl)-N′-(3-methoxy-2-methyl-benzoyl)-hydrazide] | 0.1 µM | 1.05 | –
2 | Cc1cc(C)cc(C(=O)N(NC(=O)c2ccc3c(c2C)OC(C=O)CO3)C(C)(C)C)c1 (stereo not shown) [RG-115812, 3,5-dimethyl-benzoic acid N-tert-butyl-N′-(3-formyl-5-methyl-2,3-dihydro-benzo[1,4]dioxine-6-carbonyl)-hydrazide] | 2.68 µM | 0.86 | –
3 | CCCCCCC(N(NC(=O)c1ccc(CC)cc1)C(=O)c1cc(C)cc(C)c1)C(C)(C)C (stereo not shown) [RG-115843] | 0.85 µM | 0.73 | –
4 | COc1cccc(C(=O)NN(C(=O)c2cc(C)cc(C)c2)C(/C=C(\C)C(C)(C)C)C(C)(C)C)c1C (stereo not shown) [RG-115855, 3-methoxy-2-methyl-benzoic acid N′-(1-tert-butyl-3,4,4-trimethyl-pent-2-enyl)-N′-(3,5-dimethyl-benzoyl)-hydrazide] | 0.0267 µM | 1.16 | –
5 | CCCCCCC(N(NC(=O)c1cccc(OC)c1C)C(=O)c1cc(C)cc(C)c1)C(C)(C)C (stereo not shown) [RG-115853, 3,5-dimethyl-benzoic acid N-(1-tert-butyl-heptyl)-N′-(3-methoxy-2-methyl-benzoyl)-hydrazide] | 0.1 µM | 0.898 | –
6 | CCCCC(N(NC(=O)c1cccc(OC)c1C)C(=O)c1cc(C)cc(C)c1)C(C)(C)CCC (stereo not shown) [RG-115877, 3,5-Dimethyl-benzoic acid N-(1-butyl-2,2-dimethyl-pentyl)-N′-(3-methoxy-2-methyl-benzoyl)-hydrazide] | 2.25 µM | 1.48 | –
7 | CSCC1COc2ccc(C(=O)NN(C(=O)c3cc(C)cc(C)c3)C(C)(C)C)c(C)c2O1 (stereo not shown) [RG-115817, 3,5-dimethyl-benzoic acid N-tert-butyl-N′-(5-methyl-3-methylsulfanylmethyl-2,3-dihydro-benzo[1,4]dioxine-6-carbonyl)-hydrazide] | 2.9 µM | 0.95 | –
8 | Cc1cc(C)cc(C(=O)N(NC(=O)c2ccc3c(c2C)O[C@@H](CS(C)(=O)=O)CO3)C(C)(C)C)c1 [RG-115818, 3,5-Dimethyl-benzoic acid N-tert-butyl-N′-(3-methanesulfonyl-methyl-5-methyl-2,3-dihydro-benzo[1,4]dioxine-6-carbonyl)-hydrazide] | 5.26 µM | – | –
9 | CCCCCCC(N(NC(=O)c1cccc(OC)c1C)C(=O)c1cc(OC)c(C)c(OC)c1)C(C)(C)C (stereo not shown) [RG-115854] | 0.2 µM | 0.917 | –
10 | Cc1cc(C)cc(C(=O)N(NC(=O)c2ccc3c(c2C)OC(CCN)CO3)C(C)(C)C)c1 (stereo not shown) [RG-115809, 3,5-dimethyl-benzoic acid N′-[3-(2-amino-ethyl)-5-methyl-2,3-dihydro-benzo[1,4]dioxine-6-carbonyl]-N-tert-butyl-hydrazide] | 3.25 µM | 1.09 | –
11 | CCCCCCC(N(NC(=O)c1ccc(CC)cc1)C(=O)c1cc(OC)c(C)c(OC)c1)C(C)(C)C (stereo not shown) [RG-115844] | 1.23 µM | 0.352 | –
12 | CCCCCCC(N(NC(=O)c1ccc(CC)cc1)C(=O)c1cccnc1OC)C(C)(C)C (stereo not shown) [RG-115845, 2-methoxy-nicotinic acid N-(1-tert-butyl-heptyl)-N′-(4-ethyl-benzoyl)-hydrazide] | 4.47 µM | 0.52 | –
13 | COc1cccc(C(=O)NN(C(=O)c2cc(C)cc(C)c2)/C(=C/C#N)C(C)(C)C)c1C [RG-115860, 3-methoxy-2-methyl-benzoic acid N′-(1-tert-butyl-2-cyano-vinyl)-N′-(3,5-dimethylbenzoyl) hydrazide] | – | – | Avg F1 = 2307 at 33 μM
14 | Cc1cc(C)cc(C(=O)N(NC(=O)c2ccc3c(c2C)OC(C=NO)CO3)C(C)(C)C)c1 (stereo not shown) [RG-115814, 3,5-dimethyl-benzoic acid N-tert-butyl-N′-[3-(hydroxyimino-methyl)-5-methyl-2,3-dihydro-benzo[1,4]dioxine-6-carbonyl]-hydrazide] | 0.32 µM | 1.0 | –
15 | CCc1c(OC)cccc1C(=O)NN(C(=O)c1cc(C)cc(C)c1)C(C)(C)C [GS ™-E ligand, 3,5-Dimethyl-benzoic acid N-tert-butyl-N′-(2-ethyl-3-methoxy-benzoyl)-hydrazide, reference compound] | 0.288 µM | – | –
16 | Cc1cc(C)cc(C(=O)N(NC(=O)c2ccc3c(c2C)OC(CC#N)CO3)C(C)(C)C)c1 (stereo not shown) [RG-115816, 3,5-Dimethyl-benzoic acid N-tert-butyl-N′-(3-cyanomethyl-5-methyl-2,3-dihydro-benzo[1,4]dioxine-6-carbonyl)-hydrazide] | 4.22 µM | 0.85 | –
17 | CNC(=O)C1COc2ccc(C(=O)NN(C(=O)c3cc(C)cc(C)c3)C(C)(C)C)c(C)c2O1 (stereo not shown) [RG-115811, 7-[N′-tert-butyl-N′-(3,5-dimethyl-benzoyl)-hydrazinocarbonyl]-8-methyl-2,3-dihydro-benzo[1,4]dioxine-2-carboxylic acid methylamide] | > 33 µM | 0.24 | –
18 | Cc1cc(C)cc(C(=O)N(NC(=O)c2ccc3c(c2C)OC(CF)CO3)C(C)(C)C)c1 (stereo not shown) [RG-115815, 3,5-dimethyl-benzoic acid N-tert-butyl-N′-(3-fluoromethyl-5-methyl-2,3-dihydro-benzo[1,4]dioxine-6-carbonyl)-hydrazide] | 0.3 µM | 0.738 | –
19 | Cc1ccc(S(=O)(=O)OCC2COc3ccc(C(=O)NN(C(=O)c4cc(C)cc(C)c4)C(C)(C)C)c(C)c3O2)cc1 (stereo not shown) [RG-115813, toluene-4-sulfonic acid 7-[N′-tert-butyl-N′-(3,5-dimethyl-benzoyl)-hydrazinocarbonyl]-8-methyl-2,3-dihydro-benzo[1,4]dioxin-2-ylmethyl ester] | > 33 µM | 0.01 | –
20 | Cc1cc(C)cc(C(=O)N(NC(=O)c2ccc3c(c2C)OC(C(=O)Oc2c(F)c(F)c(F)c(F)c2F)CO3)C(C)(C)C)c1 (stereo not shown) [RG-115810, 7-[N′-tert-butyl-N′-(3,5-dimethyl-benzoyl)-hydrazinocarbonyl]-8-methyl-2,3-dihydro-benzo[1,4]dioxine-2-carboxylic acid pentafluorophenyl ester] | ~20 µM | 1.23 | –
21 | Cc1cc(C)cc(C(=O)N(NC(=O)c2ccc3c(c2C)O[C@@H](CO[Si](C)(C)C(C)(C)C)CO3)C(C)(C)C)c1 [RG-115790, 3,5-dimethylbenzoic acid N-tert-butyl-N′-[3-(tert-butyldimethylsilytoxymethyl)-5-methyl-2,3-dihydrobenzo[1,4]dioxine-6-carbonyl]-hydrazide] | > 33 µM | 0.0 | –
22 | Cc1cc(C)cc(C(=O)N(NC(=O)c2ccc3c(c2C)OC(COC(=O)Nc2ccccc2)CO3)C(C)(C)C)c1 (stereo not shown) [RG-115808, phenyl-carbamic acid 7-[N′-tert-butyl-N′-(3,5-dimethyl-benzoyl)-hydrazinocarbonyl]-8-methyl-2,3-dihydro-benzo[1,4]dioxin-2-ylmethyl ester] | 1.12 µM | 2.37 | –
23 | Cc1cc(C)cc(C(=O)N(NC(=O)c2ccc3c(c2C)OC(CO)CO3)C(C)(C)C)c1 (stereo not shown) [RG-115789, 3,5-dimethylbenzoic acid N-tert-butyl-N′-(3-hydroxymethyl-5-methyl-2,3-dihydrobenzo[1,4]dioxine-6-carbonyl)-hydrazide] | 1.85 µM | 0.81 | –
24 | COC(=O)[C@H]1COc2ccc(C(=O)NN(C(=O)c3cc(C)cc(C)c3)C(C)(C)C)c(C)c2O1 [RG-115806] | ~33 µM | 0.25 | –
25 | Cc1cc(C)cc(C(=O)N(NC(=O)c2ccc3c(c2C)OC(C(=O)O)CO3)C(C)(C)C)c1 (stereo not shown) [RG-115805, 7-[N′-tert-butyl-N′-(3,5-dimethyl-benzoyl)-hydrazinocarbonyl]-8-methyl-2,3-dihydro-benzo[1,4]dioxine-2-carboxylic acid] | > 33 µM | 0.01 | –
26 | Cc1cc(C)cc(C(=O)N(NC(=O)c2ccc3c(c2C)O[C@@H](C=NNC(N)=O)CO3)C(C)(C)C)c1 [RG-115807, 3,5-dimethyl-benzoic acid N-tert-butyl-N′-(3-formylsemicarbazide-5-methyl-2,3-dihydro-benzo[1,4]dioxine-6-carbonyl)-hydrazide] | 3.34 µM | 0.80 | –
